Assay results reported in PubChem BioAssay AID743026 (Vanderbilt Specialized Chemistry Center, 2013).
Calls of active or inactive are those of the source.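 How the source made its calls: active means IC50 under 10 µM against human M5, lowering the acetylcholine-driven calcium signal; inactive means the rest.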

Target: Muscarinic acetylcholine receptor M5 (Homo sapiens) (UniProt P08912)
Assay: M5 muscarinic receptor negative allosteric modulators, dose response, cell-based, concentration-response curves, human M5 (AID 743026)
Conditions: CHO-K1 hM5, ACh EC80 calcium flux, Fluo-4; for % of max ACh response: at 30 µM (top of the series)

Sequence of Muscarinic acetylcholine receptor M5 (Homo sapiens) (P08912 whole entry, looked up): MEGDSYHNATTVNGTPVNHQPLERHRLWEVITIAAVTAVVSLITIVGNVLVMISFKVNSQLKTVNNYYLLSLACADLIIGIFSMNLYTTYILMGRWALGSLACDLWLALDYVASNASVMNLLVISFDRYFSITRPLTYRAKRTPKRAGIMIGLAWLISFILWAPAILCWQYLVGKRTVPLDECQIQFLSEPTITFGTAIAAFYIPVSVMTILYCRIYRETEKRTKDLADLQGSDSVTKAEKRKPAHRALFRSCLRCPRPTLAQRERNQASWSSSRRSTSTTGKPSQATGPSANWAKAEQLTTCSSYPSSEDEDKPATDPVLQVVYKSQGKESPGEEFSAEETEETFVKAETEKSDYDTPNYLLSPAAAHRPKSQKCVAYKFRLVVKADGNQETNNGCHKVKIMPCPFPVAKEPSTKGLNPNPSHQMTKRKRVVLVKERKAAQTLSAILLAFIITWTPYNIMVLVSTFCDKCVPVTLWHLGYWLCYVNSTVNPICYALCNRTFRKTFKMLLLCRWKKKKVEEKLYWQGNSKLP

% of max ACh response	IC50	Compound
inactive		O=C1c2ccccc2C2(c3ccccc3)NCCN12 (centres undefined)
	6740 nM	COc1ccc(C23c4ccccc4C(=O)N2CCN3C(=O)c2ccc(OC(F)(F)F)cc2)cc1 (centres undefined)
	4160 nM	Cc1ccc(C(=O)N2CCN3C(=O)c4ccccc4C23c2ccc(Cl)cc2)cc1 (centres undefined)
	790 nM	CC(C)Oc1ccc(C(=O)N2CCN3C(=O)c4ccccc4C23c2ccc(Cl)cc2)cc1 (centres undefined)
	8060 nM	COc1ccc(C23c4ccccc4C(=O)N2CCN3C(=O)c2ccc(SC(F)(F)F)cc2)cc1 (centres undefined)
	1390 nM	O=C(c1ccc(SC(F)(F)F)cc1)N1CCN2C(=O)c3ccccc3C12c1ccccc1 (centres undefined)
	1070 nM	O=C(c1cc(F)cc(F)c1)N1CCN2C(=O)c3ccccc3C12c1ccc(Cl)cc1 (centres undefined)
	2620 nM	Cc1ccc(C23c4ccccc4C(=O)N2CCN3C(=O)c2ccc(F)c(F)c2)cc1 (centres undefined)
	3100 nM	O=C(c1ccc(SC(F)(F)F)cc1)N1CCN2C(=O)c3ccccc3C12c1ccc(Cl)cc1 (centres undefined)
	4900 nM	O=C(c1ccc(OC(F)F)cc1)N1CCN2C(=O)c3ccccc3C12c1ccc(Cl)cc1 (centres undefined)
	4510 nM	O=C(c1ccc(OC(F)(F)F)cc1)N1CCN2C(=O)c3ccccc3C12c1ccccc1 (centres undefined)
	1630 nM	O=C(c1ccccc1)N1CCN2C(=O)c3ccccc3C12c1ccc(Cl)cc1 (centres undefined)
	3430 nM	O=C(c1ccc(F)cc1)N1CCN2C(=O)c3ccccc3C12c1ccccc1 (centres undefined)
	1020 nM	O=C(c1ccc(F)c(F)c1)N1CCN2C(=O)c3ccccc3C12c1ccccc1 (centres undefined)
	3470 nM	Cc1ccc(C23c4ccccc4C(=O)N2CCN3C(=O)c2ccc(OC(F)(F)F)cc2)cc1 (centres undefined)
	4040 nM	Cc1ccc(C23c4ccccc4C(=O)N2CCN3C(=O)c2ccc(SC(F)(F)F)cc2)cc1 (centres undefined)
inactive		C[C@H]1CN(C(=O)c2ccc(F)c(F)c2)[C@]2(c3ccc(Cl)cc3)c3ccccc3C(=O)N12
	1290 nM	O=C(c1ccc(SC(F)(F)F)cc1)N1CCN2C(=O)c3ccccc3C12c1ccc(F)cc1 (centres undefined)
	2120 nM	O=C(c1ccc2c(c1)OCO2)N1CCN2C(=O)c3ccccc3C12c1ccc(Cl)cc1 (centres undefined)

% of max ACh response	IC50	Compound
inactive		O=C(c1ccc(F)cc1)N1CCN2C(=O)c3ncccc3C12c1ccccc1 (centres undefined)
inactive		O=C(c1ccc(F)c(F)c1)N1CCCC1(c1ccccc1)c1ccc(Cl)cc1 (centres undefined)
	2070 nM	O=C(c1ccc(C(F)(F)F)cc1)N1CCN2C(=O)c3ccccc3C12c1ccc(Cl)cc1 (centres undefined)
	3840 nM	O=C(c1cc(F)cc(F)c1)N1CCN2C(=O)c3ccccc3C12c1ccccc1 (centres undefined)
	1260 nM	COc1ccc(C23c4ccccc4C(=O)N2CCN3C(=O)c2ccc(F)c(F)c2)cc1 (centres undefined)
	5810 nM	O=C(c1cc(Cl)cc(Cl)c1)N1CCN2C(=O)c3ccccc3C12c1ccccc1 (centres undefined)
	6580 nM	COc1cccc(C(=O)N2CCN3C(=O)c4ccccc4C23c2ccc(Cl)cc2)c1 (centres undefined)
	3000 nM	O=C(c1cccc(C(F)(F)F)c1)N1CCN2C(=O)c3ccccc3C12c1ccccc1 (centres undefined)
	1510 nM	CSc1ccc(C23c4ccccc4C(=O)N2CCN3C(=O)c2ccc(F)c(F)c2)cc1 (centres undefined)
inactive		O=C1CCC2(c3ccccc3)N1CCN2C(=O)c1ccc(F)cc1 (centres undefined)
inactive		O=C(c1ccc(F)cc1)N1CCN2C(=O)c3ccccc3C12c1ccc(Cl)cc1 (centres undefined)
	1950 nM	O=C(c1ccc(C(F)(F)F)cc1)N1CCN2C(=O)c3ccccc3C12c1ccccc1 (centres undefined)
	2340 nM	Cc1ccc(C23c4ccccc4C(=O)N2CCN3C(=O)c2cc(F)cc(F)c2)cc1 (centres undefined)
	2090 nM	O=C(c1cccc(C(F)(F)F)c1)N1CCN2C(=O)c3ccccc3C12c1ccc(F)cc1 (centres undefined)
inactive		O=C(c1ccc(F)c(F)c1)N1CCN2C(=O)c3ncccc3C12c1ccccc1 (centres undefined)
	2360 nM	O=C(c1ccc(OC(F)(F)F)cc1)N1CCN2C(=O)c3ccccc3C12c1ccc(Cl)cc1 (centres undefined)
	4910 nM	O=C(c1cccc(C(F)(F)F)c1)N1CCN2C(=O)c3ccccc3C12c1ccc(Cl)cc1 (centres undefined)
	8930 nM	C=CCOc1ccc(C23c4ccccc4C(=O)N2CCN3C(=O)c2ccc(F)c(F)c2)cc1 (centres undefined)
inactive		C[C@H]1CN[C@]2(c3ccc(Cl)cc3)c3ccccc3C(=O)N12

Compound	% of max ACh response	IC50
O=C1c2ncccc2C2(c3ccccc3)NCCN12 (centres undefined)	inactive	
